Experimental findings from article PMC8401736, “Identification and In Silico Characterization of Novel Helicobacter pylori Glucose-6-Phosphate Dehydrogenase Inhibitors” (Molecules, 2021) are described below.

Assay [1] has as its system recombinant HpG6PD (H. pylori glucose-6-phosphate dehydrogenase). In words: High-throughput screening of HpG6PD residual activity at 400 μM. In kind it is biochemical, Helicobacter pylori. To be noted: 400 μM compound, 5% DMSO, 0.2 mg/mL HpG6PD, 37 °C for two hours. How it is done:
(§1) Enzymatic activity was spectrophotometrically determined following the reduction of NADP^+ at 340 nm. The standard reaction mix contains 50 mM Tris-HCl, pH 7.6, 3 mM MgCl2, 200 µM glucose 6 phosphate and 100 µM NADP^+. The reaction was started with the addition of 1 µg of the purified HpG6PD. One unit of activity was defined as the amount of HpG6PD that catalyzes the oxidation of 1 µmol of glucose 6 phosphate per minute.
A chemical library of 55 compounds was evaluated through high-throughput screening (HTS) assays to determine those compounds with the ability to reduce the catalytic activity of the recombinant HpG6PD. Dr. Gabriel Navarrete-Vázquez from the Pharmacy Faculty of the Autonomous University of the State of Morelos provided the chemical compounds [32]. These compounds were selected based on the previously reported chemical inhibitors of human G6PD [21], prepared at a final concentration of 400 μM in 5% dimethyl sulfoxide (DMSO) (Sigma Aldrich, St. Louis, MO, USA), incubated with 0.2 mg/mL of HpG6PD (200 ng total) at 37 °C for two hours, and the HpG6PD residual activity was measured. In addition, the HpG6PD protein was incubated with 5% DMSO and used as a control.

The target of a further assay is recombinant human HsG6PD (Homo sapiens, UniProt P11413). In words: Inhibition of recombinant human HsG6PD at 400 μM. In kind it is biochemical. To be noted: 400 μM compound.
Another assay addresses HpG6PD enzyme (Helicobacter pylori, UniProt P56110). Briefly: Inactivation assays of the HpG6PD enzyme with increasing concentrations of compounds. Format: biochemical. The conditions noted are these: for inhibition at 800 µM: 2 h, read-out: loss of HpG6PD activity; for IC50: from plots of residual activity after incubation for 2 h at 37 °C, 200 μg/mL HpG6PD; for reduction of HpG6PD activity: at the highest concentration tested. The procedure: Subsequently, we performed inactivation assays using different concentrations of compounds to analyze their concentration–activity effect. […] As each of the compound’s concentrations was increased, the residual HpG6PD activity decreased in different degrees. For example, the exposure of the HpG6PD enzyme to YGC-3 and YGC-4 induced the abolition of the enzyme activity in a very similar manner (Figure 3A), the HpG6PD enzyme lost 80% of its activity at 800 µM, but when the enzyme was incubated with YGC-1, we observed a 91% loss in activity at 800 μM. On the other hand, MGD-1 and MGD-2 inactivated the HpG6PD enzyme, with 80% and 72% reductions, respectively, at the highest concentration tested (Figure 3B). […] In contrast, JMM-3 inhibited the HpG6PD enzyme at 80% with 800 µM (Figure 3D).
Figure 3 Inactivation assays of the HpG6PD enzyme with chemical compounds. The HpG6PD protein was adjusted at a final concentration of 200 μg/mL and incubated with increasing concentrations of the (A) YGC family; (B) MGD family; (C) TDA-1 compound; and (D) JMM-3 compound. The residual activity was determined after 2 h of incubation at 37 °C. […] The values represent the mean ± standard deviation from three independent experiments, and standard errors were lower than 5%.
as §1

recombinant human HsG6PD, sequence (P11413 whole entry): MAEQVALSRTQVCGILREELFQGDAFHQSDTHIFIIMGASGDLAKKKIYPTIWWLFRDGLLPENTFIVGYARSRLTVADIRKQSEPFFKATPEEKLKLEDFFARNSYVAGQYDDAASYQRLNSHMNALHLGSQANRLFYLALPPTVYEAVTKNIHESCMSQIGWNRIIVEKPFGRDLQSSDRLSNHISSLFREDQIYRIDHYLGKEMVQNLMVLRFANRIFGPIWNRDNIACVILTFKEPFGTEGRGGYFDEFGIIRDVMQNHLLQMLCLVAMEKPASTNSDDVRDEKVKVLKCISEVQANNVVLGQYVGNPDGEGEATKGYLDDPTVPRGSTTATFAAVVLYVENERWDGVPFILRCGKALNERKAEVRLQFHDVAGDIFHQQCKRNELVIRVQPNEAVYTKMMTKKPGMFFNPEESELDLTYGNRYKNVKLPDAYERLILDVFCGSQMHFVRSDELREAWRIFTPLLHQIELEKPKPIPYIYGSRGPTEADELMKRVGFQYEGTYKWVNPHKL
HpG6PD enzyme, sequence (P56110 whole entry): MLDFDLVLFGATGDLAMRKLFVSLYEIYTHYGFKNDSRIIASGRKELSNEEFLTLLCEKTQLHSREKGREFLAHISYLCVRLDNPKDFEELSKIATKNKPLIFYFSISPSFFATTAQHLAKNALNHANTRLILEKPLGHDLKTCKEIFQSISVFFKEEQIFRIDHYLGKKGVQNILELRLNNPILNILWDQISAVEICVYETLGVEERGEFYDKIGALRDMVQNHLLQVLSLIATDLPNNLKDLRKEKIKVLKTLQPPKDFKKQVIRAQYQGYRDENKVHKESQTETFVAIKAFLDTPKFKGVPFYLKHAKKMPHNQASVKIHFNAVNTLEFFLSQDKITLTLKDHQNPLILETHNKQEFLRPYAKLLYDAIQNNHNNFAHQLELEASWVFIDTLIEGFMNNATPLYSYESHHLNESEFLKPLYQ

Usually IC50 stands for the midpoint of a concentration-inhibition curve. Low values mean greater potency in that assay, high ones weaker potency in that assay. For `COc1ccc(/C=C2\SC(=O)NC2=O)cc1Oc1nc2ccccc2[nH]1` [YGC-4], the “HpG6PD Inhibition (%) at (400 μM)” value in assay [1] turned out to be 44%. For the same molecule, the inhibition at 400 µM at recombinant human HsG6PD turned out to be 18%. Moreover, at HpG6PD enzyme, the inhibition at 800 µM was determined as 80% and the IC50 was 500 µM.

On to `COc1ccc(/C=C2\SC(=O)NC2=O)cc1OCc1cccc2ccccc12` [YGC-1], for which the “HpG6PD Inhibition (%) at (400 μM)” value in assay [1] is 84%. Further, the inhibition at 400 µM at recombinant human HsG6PD came out at 8%. Further, at HpG6PD enzyme, the inhibition at 800 µM was found to be 91% and it took 310 µM to reach half-maximal inhibition (IC50).

`O=C(O)CCc1ccc(NC(=O)CSc2nc3ccccc3o2)cc1` [MGD-2]: the “HpG6PD Inhibition (%) at (400 μM)” value in assay [1] was 55%. For the same molecule, on recombinant human HsG6PD, the inhibition at 400 µM is 2%. Further, at HpG6PD enzyme (incubation for 2 h at 37 °C), the “reduction of HpG6PD activity” value stood at 72%. In addition, the IC50 against HpG6PD enzyme came out at 340 µM.

Consider `O=C(O)CCc1ccc(NC(=O)CSc2nc3ccccc3[nH]2)cc1` [MGD-1], for which, in assay [1], the “HpG6PD Inhibition (%) at (400 μM)” value is recorded as 50%. Moreover, the inhibition at 400 µM on recombinant human HsG6PD was determined as 4%. In addition, the “reduction of HpG6PD activity” value on HpG6PD enzyme (incubation for 2 h at 37 °C) is reported as 80%. Also, the 50% inhibitory concentration (IC50) against HpG6PD enzyme is 465 µM.

Take `COc1cc(/C=C2\SC(=O)NC2=O)ccc1OCCN1CCCCC1` [TDA-1]: the “HpG6PD Inhibition (%) at (400 μM)” value in assay [1] (400 µM) is 91%. Further, the inhibition at 400 µM on recombinant human HsG6PD was 10%. Further, the “loss of HpG6PD activity” value on HpG6PD enzyme (by 500 µM, incubation for 2 h at 37 °C) is given as “total loss of activity”. On HpG6PD enzyme, this molecule registered a half-inhibitory concentration (IC50) of 204 µM.

In the case of `COc1cc(CCC(=O)O)ccc1OCc1ccc(-c2ccccc2C#N)cc1` [JMM-3], the “HpG6PD Inhibition (%) at (400 μM)” value in assay [1] amounted to 67%. Moreover, the inhibition at 400 µM on recombinant human HsG6PD was 3%. For the same molecule, on HpG6PD enzyme, the inhibition at 800 µM worked out at 80% and the IC50 came to 304 µM.

Turning to `COc1ccc(/C=C2\SC(=O)NC2=O)cc1OCc1cccc(-c2ccccc2)c1` [YGC-3], the “HpG6PD Inhibition (%) at (400 μM)” value in assay [1] is 50%. For the same molecule, the inhibition at 400 µM on recombinant human HsG6PD was determined as 0%. At HpG6PD enzyme, the inhibition at 800 µM was 80% and half-maximal inhibition (IC50) required 383 µM.
